Converted amounts (≈) assume the structure as drawn. Like-named read-outs stand apart in the source and are kept apart here.
Key:
[1] = system: P. aeruginosa AR-1114; assay: Broth microdilution MIC, P. aeruginosa AR-1114; assay type: cell-based; settings: Pseudomonas aeruginosa, AR1114; IMP-15; CAMHB, 18 ± 2 h; read-out: minimal inhibitory concentration (MIC) P. aeruginosa AR-1114
[2] = system: E. coli AR-0001; assay: Broth microdilution MIC, E. coli AR-0001; assay type: cell-based, Escherichia coli; settings: for minimal inhibitory concentration (MIC) E. coli AR-0001: multidrug-resistant, KPC-3, CAMHB; for MIC: Escherichia coli, AR0001, read-out: minimal inhibitory concentration (MIC) E. coli AR-0001
Source text: (§1) The multidrug-resistant S. aureus strain TCH 1516 [USA 300-HOU-MR] was obtained from the American Type Culture Collection (ATCC, Manassas, VA, USA) (Table 1). E. faecalis AR-0671, multidrug-resistant E. coli AR-0001, K. pneumoniae AR-0003, P. aeruginosa AR-1114, and A. baumannii AR-0273 strains were acquired from the Centers for Disease Control and Prevention (CDC) AR isolate bank (Table 1). Prior to the initiation of this study, all microbial strains were stored in commercial cryopreservation systems at a temperature of −80 °C. The strains were cultivated on Columbia sheep blood agar (Becton Dickinson, Franklin Lakes, NJ, USA) or potato dextrose agar (PDA) for Candida (Becton Dickinson, Franklin Lakes, NJ, USA).
(§2) The antimicrobial activity of 3-((3-hydroxyphenyl)amino)propanoic acid derivatives was assessed by using the broth microdilution method, following the guidelines outlined by the Clinical Laboratory Standards Institute (CLSI), with modifications. In brief, the compounds were dissolved in dimethyl sulfoxide (DMSO) to attain a final concentration of 25–30 mg/mL. Vancomycin hydrochloride (MedChem express, Cat. No. HY-17362), cefazolin (MedChem express, Cat. No. HY-B1892), and meropenem (MedChem express, Cat. No. HY-13678) were used as control antimicrobial drugs and were dissolved in DMSO as described before. Dilution series were prepared in deep 96-well microplates to achieve a two-fold concentration range of 0.25, 0.5, 1, 2, 4, 8, 16, 32, and 64 µg/mL, utilizing cation-adjusted Mueller–Hinton broth (CAMHB) as the growth medium. The microplates containing the dilution series were then inoculated with fresh cultures of each tested organism to reach a final concentration of 5 × 10^4 CFU (colony-forming units) of the test organism in media containing 1% DMSO and 1× drug concentration, with a volume of 200 µL per well. Wells that were inoculated with medium containing 1% DMSO served as positive controls. Subsequently, the microplates were incubated at 35 ± 1 °C for 18 ± 2 h. Following the incubation period, the plates were examined by using a manual microplate viewer (Sensititre Manual Viewbox, ThermoFisher Scientific, Waltham, MA, USA). […] All experiments were conducted in duplicate with three technical replicates for each condition.

[3] = system: E. faecalis AR-0671; assay: Broth microdilution MIC, E. faecalis AR-0671; assay type: cell-based, Enterococcus faecalis; settings: for MIC: Enterococcus faecalis
Source text: as §1, §2

[4] = system: S. aureus TCH 1516; assay: Broth microdilution MIC, S. aureus TCH 1516; assay type: cell-based, Staphylococcus aureus; settings: mecA MRSA isolate, USA300 lineage; CAMHB, 18 ± 2 h
Source text: as §1, §2

[5] = system: K. pneumoniae AR-0003; assay: Broth microdilution MIC, K. pneumoniae AR-0003; assay type: cell-based; settings: Klebsiella pneumoniae, AR0003; KPC-3; CAMHB, 18 ± 2 h; read-out: minimal inhibitory concentration (MIC) K. pneumoniae AR-0003
[6] = system: E. coli AR-0001; assay: Broth microdilution MIC, E. coli AR-0001; assay type: cell-based; settings: Escherichia coli, AR0001; multidrug-resistant, KPC-3; CAMHB, 18 ± 2 h; read-out: minimal inhibitory concentration (MIC) E. coli AR-0001
[7] = system: P. aeruginosa AR-1114; assay: Broth microdilution MIC, P. aeruginosa AR-1114; assay type: cell-based, Pseudomonas aeruginosa; settings: for minimal inhibitory concentration (MIC) P. aeruginosa AR-1114: IMP-15, CAMHB; for MIC: Pseudomonas aeruginosa, AR1114, read-out: minimal inhibitory concentration (MIC) P. aeruginosa AR-1114
Source text: as §1, §2

[8] = system: A. baumannii AR-0273; assay: Broth microdilution MIC, A. baumannii AR-0273; assay type: cell-based, Acinetobacter baumannii; settings: for MIC: Acinetobacter baumannii
Source text: as §1, §2

[9] = system: K. pneumoniae AR-0003; assay: Broth microdilution MIC, K. pneumoniae AR-0003; assay type: cell-based, Klebsiella pneumoniae; settings: for minimal inhibitory concentration (MIC) K. pneumoniae AR-0003: KPC-3, CAMHB; for MIC: Klebsiella pneumoniae, AR0003, read-out: minimal inhibitory concentration (MIC) K. pneumoniae AR-0003
Source text: as §1, §2

[10] = system: S. aureus TCH 1516; assay: Broth microdilution MIC, S. aureus TCH 1516; assay type: cell-based; settings: Staphylococcus aureus
[11] = system: FaDu cells; assay: MTT cell viability at fixed 100 µM, FaDu cells; assay type: cell-based; settings: 24 h, described in words (Figure 2)
Method: Test compounds 2–25 were dissolved in hybridoma-grade dimethyl sulfoxide (Millipore, Sigma, Burlington, MA, USA) to prepare stock solutions at concentrations of 10–25 mg/mL. […] For in vitro anticancer activity screening, the compounds were thawed at room temperature, protected from light, and the aliquots were diluted in complete cell culture media to achieve a final concentration of 100 µM and used for the in vitro assays. The cytotoxicity assays were performed in triplicate.
FaDu cells were obtained from the American Type Culture Collection (Rockville, MD, USA). HEK293 cells were kindly provided by Dr. Iliev lab at the Jill Roberts Institute for Inflammatory Bowel Disease, Weill Cornel Medicine of Cornel University (New York, NY, USA). All cells were cultivated in Dulbecco’s Modified Eagle Medium/Nutrient Mixture F-12 (DMEM/F-12) (Gibco, Waltham, MA, USA), 10% fetal bovine serum (FBS) (Gibco, Waltham, MA, USA), 100 U/mL penicillin, and 100 μg/mL streptomycin (P/S) (Gibco, Waltham, MA, USA). Culturing conditions were maintained at 37 °C in a humidified atmosphere containing 5% CO2. The culture medium was refreshed every 2–3 days, and cells were passaged upon reaching 70–80% confluence.
The in vitro inhibitory effects of the compounds were assessed by using the MTT assay. Briefly, cells were plated in 96-well plates at a density of 1 × 10⁴ cells per well. After the cells were allowed to adhere overnight at 37 °C in 5% CO₂, they were treated with compounds at a concentration of 100 µM in triplicate. Following a 20 h incubation, the MTT reagent was added, and the cells were further incubated for 4 h. The resulting formazan was solubilized in anhydrous DMSO, and absorbance was measured at 570 nm by using a microplate reader. Cell viability was calculated by using the following formula: ([AE − AB]/[AC − AB]) × 100%, where AE, AC, and AB represent the absorbance values of experimental samples, untreated controls, and blank wells, respectively. Data analysis was performed by using GraphPad Prism or QuickCalcs.

[12] = AR0671, CAMHB, 18 ± 2 h, read-out: minimal inhibitory concentration (MIC) E. faecalis AR-0671
[13] = AR0273, OXA-23, CAMHB, 18 ± 2 h, read-out: minimal inhibitory concentration (MIC) A. baumannii AR-0273
[14] = MRSA / USA300, mecA MRSA isolate, USA300 lineage, CAMHB, 18 ±, read-out: minimal inhibitory concentration (MIC) S. aureus TCH 1516
[15] = AR0671, read-out: minimal inhibitory concentration (MIC) E. faecalis AR-0671
[16] = AR0273, read-out: minimal inhibitory concentration (MIC) A. baumannii AR-0273
[17] = MRSA / USA300, read-out: minimal inhibitory concentration (MIC) S. aureus TCH 1516

MIC [1] [µg/mL]	minimal inhibitory concentration (MIC) E. coli AR-0001 [2] [µg/mL]	minimal inhibitory concentration (MIC) E. faecalis AR-0671 ([3]; CAMHB) [µg/mL]	MIC [3, 12] [µg/mL]	minimal inhibitory concentration (MIC) S. aureus TCH 1516 [4] [µg/mL]	MIC [5] [µg/mL]	MIC [6] [µg/mL]	minimal inhibitory concentration (MIC) P. aeruginosa AR-1114 [7] [µg/mL]	MIC [8, 13] [µg/mL]	minimal inhibitory concentration (MIC) A. baumannii AR-0273 ([8]; OXA-23, CAMHB) [µg/mL]	minimal inhibitory concentration (MIC) K. pneumoniae AR-0003 [9] [µg/mL]	MIC [10, 14] [µg/mL]	Compound	MIC [2] [µg/mL]	MIC [3, 15] [µg/mL]	MIC [7] [µg/mL]	MIC [8, 16] [µg/mL]	MIC [9] [µg/mL]	MIC [10, 17] [µg/mL]	post-treatment viability (MTT assay) [11]
> 64	>64	>64	> 64	>64	> 64	> 64	>64	> 64	>64	>64	> 64	COc1cc(C=NNC(=O)CCN(CCC(=O)NN=Cc2cc(OC)c(OC)c(OC)c2)c2cccc(O)c2)cc(OC)c1OC [Compound 13, 3,3′-((3-Hydroxyphenyl)azanediyl)bis(N′-(3,4,5-trimethoxybenzylidene)propanehydrazide)]	–	–	–	–	–	–	–
> 64	>64	>64	> 64	>64	> 64	> 64	>64	> 64	>64	>64	> 64	O=C(O)CCN1CCC(=O)c2ccc(O)cc21 [Compound 7, 3-(7-Hydroxy-4-oxo-3,4-dihydroquinolin-1(2H)-yl)propanoic Acid]	–	–	–	–	–	–	–
–	–	–	–	–	–	–	–	–	–	–	–	O=C(CCN(CCC(=O)NN=Cc1ccc([N+](=O)[O-])s1)c1cccc(O)c1)NN=Cc1ccc([N+](=O)[O-])s1 [Compound 16, 3,3′-((3-Hydroxyphenyl)azanediyl)bis(N′-((5-nitrothiophen-2-yl)methylene)propanehydrazide)]	32 (≈ 57.2 µM)	4 (≈ 7.15 µM)	> 64	> 64	> 64	1 (≈ 1.79 µM)	–
> 64	>64	>64	> 64	>64	> 64	> 64	>64	> 64	>64	>64	> 64	CC(C)=NNC(=O)CCN(CCC(=O)NN=C(C)C)c1cccc(O)c1 [Compound 19, 3,3′-((3-Hydroxyphenyl)azanediyl)bis(N′-(propan-2-ylidene)propanehydrazide)]	–	–	–	–	–	–	lower activity compared with compound 22
> 64	>64	>64	> 64	>64	> 64	> 64	>64	> 64	>64	>64	> 64	O=C(CCN(CCC(=O)NN=Cc1ccccc1)c1cccc(O)c1)NN=Cc1ccccc1 [Compound 8, 3,3′-((3-Hydroxyphenyl)azanediyl)bis(N′-(benzylidene)propanehydrazide)]	–	–	–	–	–	–	–
> 64	>64	>64	> 64	–	> 64	> 64	>64	> 64	>64	>64	8 (≈ 28.4 µM)	NNC(=O)CCN(CCC(=O)NN)c1cccc(O)c1 [Compound 4, 3,3′-((3-Hydroxyphenyl)azanediyl)di(propanehydrazide)]	–	–	–	–	–	–	moderate decrease in viability
–	–	–	–	–	–	–	–	–	–	–	–	O=C(CCN(CCC(=O)NN=Cc1ccc([N+](=O)[O-])cc1)c1cccc(O)c1)NN=Cc1ccc([N+](=O)[O-])cc1 [Compound 10, 3,3′-((3-Hydroxyphenyl)azanediyl)bis(N′-(4-nitrobenzylidene)propanehydrazide)]	> 64	16 (≈ 29.2 µM)	> 64	> 64	> 64	4 (≈ 7.31 µM)	–
> 64	>64	>64	> 64	>64	> 64	> 64	>64	> 64	>64	>64	> 64	O=C(CCN(CCC(=O)N/N=C/c1ccsc1)c1cccc(O)c1)N/N=C/c1ccsc1 [Compound 18]	–	–	–	–	–	–	–

Compound	MIC [1] [µg/mL]	minimal inhibitory concentration (MIC) E. coli AR-0001 [2] [µg/mL]	minimal inhibitory concentration (MIC) E. faecalis AR-0671 ([3]; CAMHB) [µg/mL]	MIC [3, 12] [µg/mL]	minimal inhibitory concentration (MIC) S. aureus TCH 1516 [4] [µg/mL]	MIC [5] [µg/mL]	MIC [6] [µg/mL]	minimal inhibitory concentration (MIC) P. aeruginosa AR-1114 [7] [µg/mL]	MIC [8, 13] [µg/mL]	minimal inhibitory concentration (MIC) A. baumannii AR-0273 ([8]; OXA-23, CAMHB) [µg/mL]	minimal inhibitory concentration (MIC) K. pneumoniae AR-0003 [9] [µg/mL]	MIC [10, 14] [µg/mL]	MIC [2] [µg/mL]	MIC [3, 15] [µg/mL]	MIC [7] [µg/mL]	MIC [8, 16] [µg/mL]	MIC [9] [µg/mL]	MIC [10, 17] [µg/mL]	post-treatment viability (MTT assay) [11]
O=C(CCN(CCC(=O)N/N=C/c1ccc([N+](=O)[O-])o1)c1cccc(O)c1)N/N=C/c1ccc([N+](=O)[O-])o1 [Compound 17]	–	–	>64	–	–	–	–	–	–	–	–	–	> 64	> 64	> 64	> 64	> 64	16 (≈ 30.3 µM)	–
